Measurements: ChEMBL document CHEMBL1201861, “Genomics of Drug Sensitity in Cancer screening data, Wellcome Trust Sanger Institute”

Experiments:
Experiment in all cases: cells
Details in all cases: Homo sapiens
SW684 = format: functional, cell-based;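 also: growth inhibition of human SW684 cells, measured by a cell viability assay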
Description: SANGER: Inhibition of human SW684 cell growth in a cell viability assay.

JAR = format: functional, cell-based;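 also: growth inhibition of human JAR cells determined with a cell viability assay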
Description: SANGER: Inhibition of human JAR cell growth in a cell viability assay.

MPP-89 = format: functional, cell-based;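 also: growth inhibition of human MPP-89 cells, read out with a cell viability assay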
Description: SANGER: Inhibition of human MPP-89 cell growth in a cell viability assay.

SW 962 = format: functional, cell-based;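 also: growth inhibition of human SW962 cells, read out by a cell viability assay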
Description: SANGER: Inhibition of human SW962 cell growth in a cell viability assay.

NCI-H526 = format: functional, cell-based;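 also: growth inhibition of the human NCI-H526 cell line, measured by a cell viability assay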
Description: SANGER: Inhibition of human NCI-H526 cell growth in a cell viability assay.

CW-2 = format: functional, cell-based;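 also: growth inhibition of CW-2 cells, read out by a cell viability assay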
Description: SANGER: Inhibition of human CW-2 cell growth in a cell viability assay.

C2BBe1 = format: functional, cell-based;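 also: growth inhibition of C2BBe1 cells, read out through a viability assay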
Description: SANGER: Inhibition of human C2BBe1 cell growth in a cell viability assay.

TE-1 = format: functional, cell-based;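 also: growth inhibition of the human TE-1 cell line, read out with a cell viability assay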
Description: SANGER: Inhibition of human TE-1 cell growth in a cell viability assay.

KE-37 = format: functional, cell-based;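 also: growth inhibition of KE-37 cells, read out with a cell viability assay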
Description: SANGER: Inhibition of human KE-37 cell growth in a cell viability assay.

HuTu80 = format: functional, cell-based, HUTU-80;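 also: growth inhibition of HuTu80 human cells, determined with a cell viability readout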
Description: SANGER: Inhibition of human HUTU-80 cell growth in a cell viability assay.

BB30-HNC = format: functional, cell-based;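 also: growth inhibition of the cultured cell line, read out by a cell viability assay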
Description: SANGER: Inhibition of human BB30-HNC cell growth in a cell viability assay.

NH-12 = format: functional, cell-based;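 also: growth inhibition of NH-12 cells, read out with a cell viability assay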
Description: SANGER: Inhibition of human NH-12 cell growth in a cell viability assay.

SHP77 = format: functional, cell-based, SHP-77;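 also: growth inhibition of human SHP-77 cells measured by a cell viability assay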
Description: SANGER: Inhibition of human SHP-77 cell growth in a cell viability assay.

MHH-NB-11 = format: functional, cell-based;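 also: growth inhibition of human MHH-NB-11 cells, read out by a cell viability assay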
Description: SANGER: Inhibition of human MHH-NB-11 cell growth in a cell viability assay.

COLO-829 = format: functional, cell-based
Description: SANGER: Inhibition of human COLO-829 cell growth in a cell viability assay.

BV-173 = format: functional, cell-based
Description: SANGER: Inhibition of human BV-173 cell growth in a cell viability assay.

NKM-1 = format: functional, cell-based;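 also: growth inhibition of NKM-1 cells, read out with a cell viability assay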
Description: SANGER: Inhibition of human NKM-1 cell growth in a cell viability assay.

COR-L88 = format: functional, cell-based;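 also: growth inhibition of COR-L88 cells, read out with a cell viability assay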
Description: SANGER: Inhibition of human COR-L88 cell growth in a cell viability assay.

EW-3 = format: functional, cell-based;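 also: cell viability assay read-out, IC50 reflects inhibition of growth of the EW-3 cells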
Description: SANGER: Inhibition of human EW-3 cell growth in a cell viability assay.

COLO-320-HSR = format: functional, cell-based;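 also: growth inhibition of COLO-320-HSR cells, determined with a cell viability assay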
Description: SANGER: Inhibition of human COLO-320-HSR cell growth in a cell viability assay.

LS-411N = format: functional, cell-based
TGBC24TKB = format: functional, cell-based;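 also: growth inhibition of human TGBC24TKB cells, read out with a cell viability assay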
Description: SANGER: Inhibition of human TGBC24TKB cell growth in a cell viability assay.

D283 Med = format: functional, cell-based
Description: SANGER: Inhibition of human D-283MED cell growth in a cell viability assay.

LS-513 = format: functional, cell-based
Description: SANGER: Inhibition of human LS-513 cell growth in a cell viability assay.

OCUB-M = format: functional, cell-based;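 also: growth inhibition of the cancer cell line, read out through a cell viability assay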
Description: SANGER: Inhibition of human OCUB-M cell growth in a cell viability assay.

NCI-H1092 = format: functional, cell-based;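 also: cell growth inhibition measured with a cell viability assay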
Description: SANGER: Inhibition of human NCI-H1092 cell growth in a cell viability assay.

NCI-H510A = format: functional, cell-based;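 also: growth inhibition of NCI-H510A cells, read out with a cell viability assay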
Description: SANGER: Inhibition of human NCI-H510A cell growth in a cell viability assay.

TE-8 = format: functional, cell-based;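 also: growth inhibition of TE-8 cells, measured with a cell viability readout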
Description: SANGER: Inhibition of human TE-8 cell growth in a cell viability assay.

LNCaP-Clone-FGC = format: functional, cell-based
Description: SANGER: Inhibition of human LNCaP-Clone-FGC cell growth in a cell viability assay.

LU-134-A = format: functional, cell-based
Description: SANGER: Inhibition of human LU-134-A cell growth in a cell viability assay.

IST-MES1 = format: functional, cell-based;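 also: growth inhibition of IST-MES1 cells, measured with a cell viability assay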
Description: SANGER: Inhibition of human IST-MES1 cell growth in a cell viability assay.

COLO-800 = format: functional, cell-based;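 also: growth inhibition of COLO-800 cells, read out with a cell viability assay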
Description: SANGER: Inhibition of human COLO-800 cell growth in a cell viability assay.

LB1047-RCC = format: functional, cell-based;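 also: inhibition of cell growth, determined with a cell viability assay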
Description: SANGER: Inhibition of human LB1047-RCC cell growth in a cell viability assay.

HL-60 = format: functional, cell-based;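 also: growth inhibition of human HL-60 cells, read out with a cell viability assay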
Description: SANGER: Inhibition of human HL-60 cell growth in a cell viability assay.

SK-UT-1 = format: functional, cell-based;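 also: growth inhibition of SK-UT-1 cells, measured by a cell viability assay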
Description: SANGER: Inhibition of human SK-UT-1 cell growth in a cell viability assay.

COLO-684 = format: functional, cell-based
Description: SANGER: Inhibition of human COLO-684 cell growth in a cell viability assay.

COLO-668 = format: functional, cell-based
Description: SANGER: Inhibition of human COLO-668 cell growth in a cell viability assay.

LB831-BLC = format: functional, cell-based;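 also: growth inhibition of LB831-BLC cells, read out with a cell viability assay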
Description: SANGER: Inhibition of human LB831-BLC cell growth in a cell viability assay.

KARPAS-299 = format: functional, cell-based
Description: SANGER: Inhibition of human KARPAS-299 cell growth in a cell viability assay.

BT-474 = format: functional, cell-based
Description: SANGER: Inhibition of human BT-474 cell growth in a cell viability assay.

MSTO-211H = format: functional, cell-based
Description: SANGER: Inhibition of human MSTO-211H cell growth in a cell viability assay.

D-263MG = format: functional, cell-based
Description: SANGER: Inhibition of human D-263MG cell growth in a cell viability assay.

ALL-PO = format: functional, cell-based;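 also: growth inhibition of ALL-PO cells, read out by a cell viability assay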
Description: SANGER: Inhibition of human ALL-PO cell growth in a cell viability assay.

NB10 = format: functional, cell-based;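 also: growth inhibition of NB10 cells, read out by a cell viability assay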
Description: SANGER: Inhibition of human NB10 cell growth in a cell viability assay.

LB373-MEL-D = format: functional, cell-based;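 also: growth inhibition of the cell line, read out in a cell viability assay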
Description: SANGER: Inhibition of human LB373-MEL-D cell growth in a cell viability assay.

HAL-01 = format: functional, cell-based;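 also: growth inhibition of human HAL-01 cells, read out with a cell viability assay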
Description: SANGER: Inhibition of human HAL-01 cell growth in a cell viability assay.

RH-1 = format: functional, cell-based;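 also: growth inhibition of human RH-1 cells, read out with a cell viability assay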
Description: SANGER: Inhibition of human RH-1 cell growth in a cell viability assay.

KY821 = format: functional, cell-based;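 also: growth inhibition of human KY821 cells, read out by a cell viability assay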
Description: SANGER: Inhibition of human KY821 cell growth in a cell viability assay.

LXF-289 cell line = format: functional, cell-based
Description: SANGER: Inhibition of human LXF-289 cell growth in a cell viability assay.

GI-ME-N = format: functional, cell-based;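 also: growth inhibition of human GI-ME-N cells, read out with a cell viability assay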
Description: SANGER: Inhibition of human GI-ME-N cell growth in a cell viability assay.

DSH1 = format: functional, cell-based;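 also: growth inhibition of human DSH1 cells, measured with a cell viability readout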
Description: SANGER: Inhibition of human DSH1 cell growth in a cell viability assay.

EW-11 = format: functional, cell-based;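 also: growth inhibition of human EW-11 cells, measured with a cell viability assay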
Description: SANGER: Inhibition of human EW-11 cell growth in a cell viability assay.

A498 = format: functional, cell-based;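 also: growth inhibition of human A498 cells, read out with a cell viability assay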
Description: SANGER: Inhibition of human A498 cell growth in a cell viability assay.

NCI-H1355 = format: functional, cell-based;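 also: growth inhibition of human NCI-H1355 cells, read out by a cell viability assay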
Description: SANGER: Inhibition of human NCI-H1355 cell growth in a cell viability assay.

BB49-HNC = format: functional, cell-based;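 also: cell viability assay read-out, reported as inhibition of BB49-HNC cell growth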
Description: SANGER: Inhibition of human BB49-HNC cell growth in a cell viability assay.

LB771-HNC = format: functional, cell-based;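 also: growth inhibition of LB771-HNC human cells, read out with a cell viability assay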
Description: SANGER: Inhibition of human LB771-HNC cell growth in a cell viability assay.

CP66-MEL = format: functional, cell-based;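 also: growth inhibition of CP66-MEL cells determined in a cell viability assay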
Description: SANGER: Inhibition of human CP66-MEL cell growth in a cell viability assay.

Mo = format: functional, cell-based
Description: SANGER: Inhibition of human Mo-T cell growth in a cell viability assay.

NB6 = format: functional, cell-based;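 also: growth inhibition of NB6 cells, read out by a cell viability assay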
Description: SANGER: Inhibition of human NB6 cell growth in a cell viability assay.

L-428 = format: functional, cell-based
Description: SANGER: Inhibition of human L-428 cell growth in a cell viability assay.

Lu-65 = format: functional, cell-based;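 also: growth inhibition of Lu-65 cancer cells, read out by a cell viability assay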
Description: SANGER: Inhibition of human LU-65 cell growth in a cell viability assay.

EW-18 = format: functional, cell-based;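 also: growth inhibition of EW-18 cells, read out by a cell viability assay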
Description: SANGER: Inhibition of human EW-18 cell growth in a cell viability assay.

NCI-H1650 = format: functional, cell-based;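 also: growth inhibition of human NCI-H1650 cells measured by a cell viability assay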
Description: SANGER: Inhibition of human NCI-H1650 cell growth in a cell viability assay.

OVCAR-4 = format: functional, cell-based;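 also: growth inhibition of human OVCAR-4 cells, measured with a cell viability assay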
Description: SANGER: Inhibition of human OVCAR-4 cell growth in a cell viability assay.

EKVX = format: functional, cell-based;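 also: growth inhibition of human EKVX cells, read out with a cell viability assay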
Description: SANGER: Inhibition of human EKVX cell growth in a cell viability assay.

With CC[C@@]1(O)C(=O)OCc2c1cc1n(c2=O)Cc2cc3ccccc3nc2-1 [CAMPTOTHECIN] the IC50 (SW684) was > 100 nM, the IC50 (JAR) was 14.5 nM and the IC50 (MPP-89) was 27.2 nM. The IC50 (SW 962) was 20.5 nM, the IC50 (NCI-H526) was 1.03 nM and the IC50 (CW-2) was 35.4 nM. The IC50 (C2BBe1) was 2.44 nM, the IC50 (TE-1) was 35.1 nM and the IC50 (KE-37) was 1.54 nM. For the same molecule, the IC50 (HuTu80) was 3.38 nM, the IC50 (BB30-HNC) was 21.5 nM and the IC50 (NH-12) was 3.79 nM. The IC50 (SHP77) was > 100 nM, the IC50 (MHH-NB-11) was 0.842 nM and the IC50 (COLO-829) was 11.7 nM. It also gave an IC50 (BV-173) of 2.38 nM, an IC50 (NKM-1) of 0.441 nM and an IC50 (COR-L88) of 40.9 nM. For the same molecule, the IC50 (EW-3) was 0.319 nM, the IC50 (COLO-320-HSR) was 62.1 nM and the IC50 (LS-411N) was 58.1 nM. For the same molecule, the IC50 (TGBC24TKB) was 53.7 nM, the IC50 (D283 Med) was 3.2 nM and the IC50 (LS-513) was 19.4 nM. The IC50 (OCUB-M) was 38.1 nM, the IC50 (NCI-H1092) was 43.2 nM and the IC50 (NCI-H510A) was 1.7 nM. For the same molecule, the IC50 (TE-8) was 4.17 nM, the IC50 (LNCaP-Clone-FGC) was 31 nM and the IC50 (LU-134-A) was 0.586 nM. It also gave an IC50 (IST-MES1) of 10.6 nM, an IC50 (COLO-800) of 0.428 nM and an IC50 (LB1047-RCC) of 7.9 nM. For the same molecule, the IC50 (HL-60) was 3.73 nM, the IC50 (SK-UT-1) was 3.07 nM and the IC50 (COLO-684) was 13.8 nM. For the same molecule, the IC50 (COLO-668) was 22.3 nM, the IC50 (LB831-BLC) was 18.4 nM and the IC50 (KARPAS-299) was > 100 nM. For the same molecule, the IC50 (BT-474) was > 100 nM, the IC50 (MSTO-211H) was 8.24 nM and the IC50 (D-263MG) was 9.11 nM. For the same molecule, the IC50 (ALL-PO) was 1.53 nM, the IC50 (NB10) was 0.614 nM and the IC50 (LB373-MEL-D) was 91.2 nM. For the same molecule, the IC50 (HAL-01) was 2.55 nM, the IC50 (RH-1) was 3.86 nM and the IC50 (KY821) was 8.12 nM. The IC50 (LXF-289 cell line) was 7.05 nM, the IC50 (GI-ME-N) was 33.9 nM and the IC50 (DSH1) was 15.8 nM. For the same molecule, the IC50 (EW-11) was 2.66 nM, the IC50 (A498) was 7.08 nM and the IC50 (NCI-H1355) was 66.1 nM.
In the case of CCn1c(-c2nonc2N)nc2cnc(Oc3cccc(NC(=O)c4ccc(OCCN5CCOCC5)cc4)c3)cc21 [GSK-269962A], the IC50 (SW684) is reported as > 2500 nM, the IC50 (BB49-HNC) is reported as 7.89 nM and the IC50 (JAR) is reported as > 2500 nM. The IC50 (MPP-89) was 1260 nM, the IC50 (SW 962) was > 2500 nM and the IC50 (NCI-H526) was > 2500 nM. For the same molecule, the IC50 (CW-2) was > 2500 nM, the IC50 (C2BBe1) was > 2500 nM and the IC50 (TE-1) was > 2500 nM. The IC50 (KE-37) was > 2500 nM, the IC50 (LB771-HNC) was > 2500 nM and the IC50 (CP66-MEL) was > 2500 nM. The IC50 (HuTu80) was > 2500 nM, the IC50 (BB30-HNC) was > 2500 nM and the IC50 (NH-12) was > 2500 nM. For the same molecule, the IC50 (SHP77) was > 2500 nM, the IC50 (MHH-NB-11) was 66.9 nM and the IC50 (COLO-829) was > 2500 nM. For the same molecule, the IC50 (BV-173) was > 2500 nM, the IC50 (Mo) was > 2500 nM and the IC50 (NKM-1) was > 2500 nM. The IC50 (NB6) was 591 nM, the IC50 (COR-L88) was > 2500 nM and the IC50 (EW-3) was > 2500 nM. The IC50 (COLO-320-HSR) was > 2500 nM, the IC50 (LS-411N) was > 2500 nM and the IC50 (D283 Med) was > 2500 nM. The IC50 (LS-513) was > 2500 nM, the IC50 (OCUB-M) was > 2500 nM and the IC50 (NCI-H1092) was > 2500 nM. For the same molecule, the IC50 (L-428) was > 2500 nM, the IC50 (NCI-H510A) was > 2500 nM and the IC50 (TE-8) was > 2500 nM. The IC50 (LNCaP-Clone-FGC) was > 2500 nM, the IC50 (LU-134-A) was > 2500 nM and the IC50 (IST-MES1) was > 2500 nM. For the same molecule, the IC50 (COLO-800) was > 2500 nM, the IC50 (LB1047-RCC) was > 2500 nM and the IC50 (HL-60) was > 2500 nM. For the same molecule, the IC50 (SK-UT-1) was > 2500 nM, the IC50 (COLO-684) was > 2500 nM and the IC50 (Lu-65) was > 2500 nM. For the same molecule, the IC50 (COLO-668) was > 2500 nM, the IC50 (LB831-BLC) was > 2500 nM and the IC50 (KARPAS-299) was > 2500 nM. For the same molecule, the IC50 (BT-474) was > 2500 nM, the IC50 (MSTO-211H) was > 2500 nM and the IC50 (D-263MG) was 85.1 nM. For the same molecule, the IC50 (ALL-PO) was > 2500 nM, the IC50 (EW-18) was > 2500 nM and the IC50 (NCI-H1650) was > 2500 nM. For the same molecule, the IC50 (NB10) was 138 nM, the IC50 (LB373-MEL-D) was > 2500 nM and the IC50 (HAL-01) was > 2500 nM. The IC50 (OVCAR-4) was > 2500 nM, the IC50 (RH-1) was > 2500 nM and the IC50 (KY821) was > 2500 nM. For the same molecule, the IC50 (EKVX) was > 2500 nM, the IC50 (LXF-289 cell line) was > 2500 nM and the IC50 (GI-ME-N) was 49.5 nM. For the same molecule, the IC50 (DSH1) was > 2500 nM, the IC50 (EW-11) was > 2500 nM and the IC50 (A498) was > 2500 nM. For the same molecule, the IC50 (NCI-H1355) was > 2500 nM.
